In patent US20240158438A1, “POLYPEPTIDE COMPOUND AND APPLICATION THEREOF” (CHENGDU SINTANOVO BIOTECHNOLOGY CO., LTD., priority 2021, published 2024):
Starred links: 1 amine or outer side, 2 acyl side, 3 side chain; linkers in the order of their positions; H or OH if unused. Non-standard residues stand in square brackets, D forms with d. Residues, ends and D or L forms follow the SMILES beside them. *: point of attachment. Azetidine3carboxylic = O=C(C1CN([*:1])C1)[*:2]; X5 = NC12CC3CC(C1)CC(CC(=O)*)(C3)C2; dBta = N[C@H](Cc1csc2ccccc12)C(=O)O; dCit = NC(=O)NCCC[C@@H](N)C(=O)O; X7 = O=C([C@@]12CNC[C@@H]1C2)*; dTle = CC(C)(C)[C@@H](N)C(=O)O; Ac4c(3-oxa) = NC1(C(=O)O)COC1; Tle = CC(C)(C)[C@H](N)C(=O)O; dNle = CCCC[C@@H](N)C(=O)O; Nle = CCCC[C@H](N)C(=O)O; dAbu = CC[C@@H](N)C(=O)O; Api = NC1(C(=O)O)CCNCC1; X4 = O=C([C@H]1CNCCO1)*; dAze = O=C(O)[C@H]1CCN1; X3 = NCC1(C(=O)*)CCC1

Target: GHSR-1a (Homo sapiens (Human), UniProt Q92847)
Sequence (Q92847 whole entry): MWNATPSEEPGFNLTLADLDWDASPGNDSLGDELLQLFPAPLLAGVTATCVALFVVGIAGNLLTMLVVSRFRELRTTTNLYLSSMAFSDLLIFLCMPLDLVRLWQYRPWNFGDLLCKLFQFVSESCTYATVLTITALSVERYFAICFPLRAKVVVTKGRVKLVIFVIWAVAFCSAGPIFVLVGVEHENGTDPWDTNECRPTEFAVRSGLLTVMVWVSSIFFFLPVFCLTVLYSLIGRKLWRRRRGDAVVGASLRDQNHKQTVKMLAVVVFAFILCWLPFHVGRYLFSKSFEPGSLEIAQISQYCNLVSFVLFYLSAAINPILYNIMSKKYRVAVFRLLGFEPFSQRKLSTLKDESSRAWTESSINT
Experiment: Agonistic activity for GHSR-1a, FLIPR calcium assay
Assay type: cell-based
Conditions: agonist activity assay, Flp In-CHO-GHSR Stable Pool cells, FLIPR calcium 6 kit; read-out: The activity (IC50) of polypeptide compounds for GHSR-1a
Description: The use of recombinant expression of GHSR provides several advantages; for example, the receptor can be expressed in a determined cell system, so that it is easier to distinguish between the reactions of the compounds with GHSR and the reactions with other receptors. For example, cell lines such as HEK293, COS7 and CHO that […] can be used to express GHSR, and the same cell lines without expression vectors are used as controls.
The activity of GHSR-1a can be measured using different techniques, for example, by detecting the change in the intracellular conformation of GHSR, the change in G-protein coupling activity, and/or the change in intracellular messengers. Techniques such as measuring intracellular Ca^2+ are preferably used to measure the activity of GHSR-1a. Examples of techniques known in the art that can be used to measure Ca^2+ include the use of FLIPR® calcium ion assay kits, among others. The FLIPR® calcium ion assay kits use a calcium ion sensitive indicator and a masking dye to ensure that a researcher carries out high-sensitivity fluorescent screening for G protein-coupled receptors, ion channels and other calcium ion sensitive targets. This experiment used FLIPR calcium 6 assay kits and FLIPR calcium 6-QF assay kits.
• a) Cell line: Flp In-CHO-GHSR Stable Pool; • b) Complete medium: F12K+10% fetal bovine serum+1×penicillin-streptomycin (PS)+600 μg/mL hygromycin B; • c) Cell seeding medium: F12K+10% fetal bovine serum. • d) Assay buffer: 1× HBSS+20 mM HEPES. • e) […] component A: Assay buffer and component A were left at room temperature (RT), 10 mL of buffer was added to component A, and the mixture was vortexed for 1-2 min and stored at −20° C.
• a) Compound stock solutions: the powders from in-house synthesis were made into 10 mM stock solutions in DMSO according to the standard protocol. • b) Compound storage: all compounds in DMSO were stored in room temperature desiccators for short-term storage (at most 4 months). The remaining compounds were left at −20 ° C. for long-term storage.
• a) Flp In-CHO-GHSR Stable Pool cells were cultured in complete medium. • b) The cells were placed in […] cell seeding medium in a 384-well cell culture plate (Corning, 3764) at 7k cells/well and cultured overnight at 37° C. with 5% CO2. • c) 20× component A was thawed at room temperature, diluted with assay buffer to 2×, and left at RT. • d) The Petri dish was taken out of the incubator and equilibrated at room temperature for 10 min. The medium was changed to […]. After the final wash, 20 μL of buffer was kept in each well, 20 μL of 2× component A was then added to each well, and the plate was incubated at 37° C. for 3-5 s. • e) 10 μL of 5× compound was added to the 384-well cell culture plate, and data collection was immediately performed using FLIPR Tetra.
• 1) Z′ factor=1−3×(SDMax+SDMin)/(MeanMax−MeanMin); • 2) CVMax=(SDMax/MeanMax)×100%; • 3) CVMin=(SDMin/MeanMin)×100%; • 4) S/B=Singal/Background; • 5) Calculation formula for IC50: • Y=Bottom+(Top−Bottom)/(1+10^((LogIC50−X)×HillSlope)) • X: log value of compound concentration; Y: Activation % or Inhibition %

SMILES | IC50 [nM]
N=C(N)NCCC[C@@H](NC(=O)[C@H](Cc1ccccc1)NC(=O)[C@@H](Cc1c[nH]c2ccccc12)NC(=O)[C@@H](Cc1csc2ccccc12)NC(=O)C1CNC1)C(N)=O [Compound 63] (Azetidine3carboxylic-[dBta][dW]F[dR]-NH2) | 27
NCCCC[C@@H](N)C(=O)N[C@H](Cc1csc2ccccc12)C(=O)N[C@H](Cc1c[nH]c2ccccc12)C(=O)N[C@@H](Cc1ccccc1)C(=O)N[C@H](CCCCN)C(N)=O [Compound 34] (H-[dK][dBta][dW]F[dK]-NH2) | 78.4
CC(=O)N[C@@H](CCCCN)C(=O)N[C@H](Cc1csc2ccccc12)C(=O)N[C@H](Cc1c[nH]c2ccccc12)C(=O)N[C@@H](Cc1ccccc1)C(=O)NC1(C(N)=O)CCNCC1 [Compound 8] (Ac-K[dBta][dW]F[Api]-NH2) | > 1000
NC(=O)NCCC[C@@H](N)C(=O)N[C@H](Cc1csc2ccccc12)C(=O)N[C@H](Cc1c[nH]c2ccccc12)C(=O)N[C@@H](Cc1ccccc1)C(=O)NC1(C(N)=O)CCNCC1 [Compound 1] (H-[dCit][dBta][dW]F[Api]-NH2) | 150
NCCCC[C@@H](NC(=O)[C@H](Cc1ccccc1)NC(=O)[C@@H](Cc1c[nH]c2ccccc12)NC(=O)[C@@H](Cc1csc2ccccc12)NC(=O)[C@H]1CNCCO1)C(N)=O [Compound 57] (X4-[dBta][dW]F[dK]-NH2) | 13.4
NCCCC[C@H](N)C(=O)N[C@H](Cc1csc2ccccc12)C(=O)N[C@H](Cc1c[nH]c2ccccc12)C(=O)N[C@@H](Cc1ccccc1)C(=O)N[C@H](CCCCN)C(N)=O [Compound 35] (H-K[dBta][dW]F[dK]-NH2) | 102
NCCCC[C@H](N)C(=O)N[C@H](Cc1csc2ccccc12)C(=O)N[C@H](Cc1c[nH]c2ccccc12)C(=O)N[C@@H](Cc1ccccc1)C(=O)NC1(C(N)=O)CCNCC1 [Compound 5] (H-K[dBta][dW]F[Api]-NH2) | > 1000
CC(C)(C)[C@@H](N)C(=O)N[C@H](Cc1csc2ccccc12)C(=O)N[C@H](Cc1c[nH]c2ccccc12)C(=O)N[C@@H](Cc1ccccc1)C(=O)NC1(C(N)=O)CCNCC1 [Compound 17] (H-[dTle][dBta][dW]F[Api]-NH2) | 31.1
NC(=O)[C@H](Cc1ccccc1)NC(=O)[C@@H](Cc1c[nH]c2ccccc12)NC(=O)[C@@H](Cc1csc2ccccc12)NC(=O)C1(N)COC1 [Compound 74] (H-[Ac4c(3-oxa)][dBta][dW]F-NH2) | 17.3
NCCCC[C@@H](N)C(=O)N[C@H](Cc1csc2ccccc12)C(=O)N[C@H](Cc1c[nH]c2ccccc12)C(=O)N[C@@H](Cc1ccccc1)C(=O)NC1(C(N)=O)CCNCC1 [Compound 4] (H-[dK][dBta][dW]F[Api]-NH2) | 1120
CCCC[C@@H](NC(=O)C1(NC(=O)[C@H](Cc2ccccc2)NC(=O)[C@@H](Cc2c[nH]c3ccccc23)NC(=O)[C@@H](Cc2csc3ccccc23)NC(=O)[C@H](N)CC)CCNCC1)C(=O)N[C@H](C)C(N)=O [Compound 84] (H-[dAbu][dBta][dW]F[Api][dNle][dA]-NH2) | 6.7
NC(=O)C1(NC(=O)[C@H](Cc2ccccc2)NC(=O)[C@@H](Cc2c[nH]c3ccccc23)NC(=O)[C@@H](Cc2csc3ccccc23)NC(=O)[C@H]2CNCCO2)CCNCC1 [Compound 27] (X4-[dBta][dW]F[Api]-NH2) | 32.8
CCCC[C@H](N)C(=O)N[C@H](Cc1csc2ccccc12)C(=O)N[C@H](Cc1c[nH]c2ccccc12)C(=O)N[C@@H](Cc1ccccc1)C(=O)NC1(C(N)=O)CCNCC1 [Compound 20] (H-[Nle][dBta][dW]F[Api]-NH2) | 57.4
CC(=O)N[C@H](CCCCN)C(=O)N[C@H](Cc1csc2ccccc12)C(=O)N[C@H](Cc1c[nH]c2ccccc12)C(=O)N[C@@H](Cc1ccccc1)C(=O)NC1(C(N)=O)CCNCC1 [Compound 7] (Ac-[dK][dBta][dW]F[Api]-NH2) | 935
CC(=O)N[C@H](CCCNC(N)=O)C(=O)N[C@H](Cc1csc2ccccc12)C(=O)N[C@H](Cc1c[nH]c2ccccc12)C(=O)N[C@@H](Cc1ccccc1)C(=O)NC1(C(N)=O)CCNCC1 [Compound 6] (Ac-[dCit][dBta][dW]F[Api]-NH2) | > 1000
N=C(N)NCCC[C@@H](NC(=O)[C@H](Cc1ccccc1)NC(=O)[C@@H](Cc1c[nH]c2ccccc12)NC(=O)[C@@H](Cc1csc2ccccc12)NC(=O)[C@@]12CNC[C@@H]1C2)C(N)=O [Compound 70] (X7-[dBta][dW]F[dR]-NH2) | 39.7
CC(C)[C@@H](N)C(=O)N[C@H](Cc1csc2ccccc12)C(=O)N[C@H](Cc1c[nH]c2ccccc12)C(=O)N[C@@H](Cc1ccccc1)C(=O)N[C@H](CCCCN)C(N)=O [Compound 43] (H-[dV][dBta][dW]F[dK]-NH2) | 22.3
NCCCC[C@@H](NC(=O)[C@H](Cc1ccccc1)NC(=O)[C@@H](Cc1c[nH]c2ccccc12)NC(=O)[C@@H](Cc1csc2ccccc12)NC(=O)CC12CC3CC(CC(N)(C3)C1)C2)C(N)=O [Compound 58] (X5-[dBta][dW]F[dK]-NH2) | 104
NC(=O)[C@H](Cc1ccccc1)NC(=O)[C@@H](Cc1c[nH]c2ccccc12)NC(=O)[C@@H](Cc1csc2ccccc12)NC(=O)[C@H]1CCN1 [Compound 75] (H-[dAze][dBta][dW]F-NH2) | 12.4
CC(=O)NCCCC[C@@H](N)C(=O)N[C@H](Cc1csc2ccccc12)C(=O)N[C@H](Cc1c[nH]c2ccccc12)C(=O)N[C@@H](Cc1ccccc1)C(=O)NC1(C(N)=O)CCNCC1 [Compound 10] (H-[dK](Ac)[dBta][dW]F[Api]-NH2) | 223
NC(=O)[C@H](Cc1ccccc1)NC(=O)[C@@H](Cc1c[nH]c2ccccc12)NC(=O)[C@@H](Cc1csc2ccccc12)NC(=O)CC12CC3CC(CC(N)(C3)C1)C2 [Compound 78] | 78.4
NC(=O)[C@H](Cc1ccccc1)NC(=O)[C@@H](Cc1c[nH]c2ccccc12)NC(=O)[C@@H](Cc1csc2ccccc12)NC(=O)C1N[C@@H]2CC[C@H]1C2 (stereo partly drawn) [Compound 79] | 33.1
CC(C)(C)[C@H](N)C(=O)N[C@H](Cc1csc2ccccc12)C(=O)N[C@H](Cc1c[nH]c2ccccc12)C(=O)N[C@@H](Cc1ccccc1)C(=O)NC1(C(N)=O)CCNCC1 [Compound 18] (H-[Tle][dBta][dW]F[Api]-NH2) | 23.5
CC(=O)NCCCC[C@@H](N)C(=O)N[C@H](Cc1csc2ccccc12)C(=O)N[C@H](Cc1c[nH]c2ccccc12)C(=O)N[C@@H](Cc1ccccc1)C(=O)N[C@H](CCCCN)C(N)=O [Compound 40] (H-[dK](Ac)[dBta][dW]F[dK]-NH2) | 510
CC(C)C[C@@H](N)C(=O)N[C@H](Cc1csc2ccccc12)C(=O)N[C@H](Cc1c[nH]c2ccccc12)C(=O)N[C@@H](Cc1ccccc1)C(=O)N[C@H](CCCCN)C(N)=O [Compound 44] (H-[dL][dBta][dW]F[dK]-NH2) | 13.5
CCCC[C@@H](N)C(=O)N[C@H](Cc1csc2ccccc12)C(=O)N[C@H](Cc1c[nH]c2ccccc12)C(=O)N[C@@H](Cc1ccccc1)C(=O)N[C@H](CCCCN)C(N)=O [Compound 49] (H-[dNle][dBta][dW]F[dK]-NH2) | 59.4
N=C(N)NCCC[C@@H](NC(=O)[C@H](Cc1ccccc1)NC(=O)[C@@H](Cc1c[nH]c2ccccc12)NC(=O)[C@@H](Cc1csc2ccccc12)NC(=O)C1(CN)CCC1)C(N)=O [Compound 62] (X3-[dBta][dW]F[dR]-NH2) | 30.3
